The source of these data is the supplement of paper PMC4862054.

Common to all, as to assay: normalised response (% of control), CellTiter-Glo; higher = more viable cells (100 = DMSO, 0 = benzethonium chloride kill control)
Settings in all cases: incubation time: 72 h
(ATP-based viability assays read luminescence as a measure of living cells.)

One assay deals with MDA-MB-436. In outline: (§1)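 Breast cancer cell lines (20 µl suspension) were seeded into 384-well plates holding compound at 5 concentrations in 10-fold steps over a compound-specific 10,000-fold range, then incubated 72 h. CellTox Green fluorescence (485/520 nm) was read first, then CellTiter-Glo luminescence after 10 min at room temperature. Each plate was normalised to 0.1 % DMSO (100) and a positive kill control (0). Each value is the normalised signal at a single concentration of the series.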

For a further assay, the system named is CAL-120. In outline: as §1
A further assay deals with MFM-223. In outline:
as §1

For a further assay, the system named is CAL-51. In outline:
as §1

The subject of the next assay is BT-474. In outline:
as §1

The test system of another assay is HDQ-P1. In outline: as §1
Another assay concerns MDA-MB-231. In a few lines:
as §1

For a further assay, the system named is CAL-148. In outline: as §1
The test system of a further assay is BT-549. In outline:
as §1

The next assay deals with CAL-85-1. In outline:
as §1

A further assay has as its system HCC1599. In outline:
as §1

The subject of a further assay is SK-BR-3. In a few lines: as §1
Another assay deals with MCF-10A. In a few lines:
as §1

In the next assay the test system is HCC1937. In outline:
as §1

In a further assay the test system is HCC1143. In outline: as §1
Another assay relates to MDA-MB-468. In outline:
as §1

A further assay relates to MDA-MB-453. In outline:
as §1

A further assay has as its system DU-4475. In outline:
as §1

The test system of another assay is Hs578T. In outline:
as §1

For the compound `COc1cc(Nc2ncc3c(n2)-c2ccc(Cl)cc2C(c2c(F)cccc2OC)=NC3)ccc1C(=O)O` [Alisertib] (1 nM), the normalised response with MDA-MB-436 was found to be 99%; in the assay with CAL-120, 96.7%; with MFM-223 it was 92.9%; with CAL-51 it was 116%; in the assay with BT-474 it was 98.9%; with HDQ-P1, 94.7%. Besides, the normalised response with MDA-MB-231 amounted to 93.3%; in the assay with CAL-148, 89.3%; in the assay with BT-549, 95.6%; in the assay on CAL-85-1, 91.9%; in the assay on HCC1599, 90.2%; in the assay with SK-BR-3, 94.2%. The normalised response with MCF-10A was found to be 84%; in the assay on HCC1937, 88.4%; with HCC1143, 91.6%; in the assay with MDA-MB-468, 95.9%; in the assay on MDA-MB-453, 95.9%; in the assay with DU-4475 it was 97%. The compound also had a normalised response with Hs578T of 95.6%.
`CCN1CCN(c2ccc(Nc3cc(N(C)C(=O)Nc4c(Cl)c(OC)cc(OC)c4Cl)ncn3)cc2)CC1` [NVP-BGJ398] (0.1 nM): the normalised response turned out to be 97.6% in the assay with MDA-MB-436; 92% with CAL-120; 96.6% in the assay on MFM-223; 74.7% with CAL-51; 96.7% with BT-474; 101% in the assay on HDQ-P1. Moreover, the normalised response with MDA-MB-231 stood at 95.4%; in the assay on CAL-148 it was 97.7%; with BT-549, 99.8%; with CAL-85-1 it was 93.4%; in the assay on HCC1599, 98.7%; in the assay on SK-BR-3 it was 99%. For the same compound, the normalised response in the assay with MCF-10A turned out to be 101%; in the assay on HCC1937, 95.6%; in the assay on HCC1143 it was 98.2%; in the assay on MDA-MB-468, 88.2%; in the assay with MDA-MB-453 it was 84.1%; with DU-4475, 101%. Further, in the assay on Hs578T, the normalised response stood at 97.3%.
On to `CS(=O)(=O)c1ccc(C(=O)Nc2ccc(Cl)c(-c3ccccn3)c2)c(Cl)c1` [Vismodegib] (10 nM), for which the normalised response was 91.5% with MDA-MB-436; 95.2% in the assay with CAL-120; 94.3% in the assay with MFM-223; 126% with CAL-51; 90.2% with BT-474; 99.4% in the assay with HDQ-P1. The normalised response in the assay on MDA-MB-231 turned out to be 90.8%; in the assay with CAL-148 it was 91%; with BT-549, 96.4%; in the assay on CAL-85-1 it was 102%; with HCC1599, 100%; with SK-BR-3, 105%. Also, the normalised response with MCF-10A stood at 90.3%; with HCC1937, 96.4%; with HCC1143, 93.9%; in the assay with MDA-MB-468, 92.9%; with MDA-MB-453 it was 89.4%; with DU-4475, 96.4%. For the same compound, in the assay with Hs578T, the normalised response came to 95.4%.
As to `CO[C@H]1C[C@@H]2CC[C@@H](C)[C@@](O)(O2)C(=O)C(=O)N2CCCC[C@H]2C(=O)O[C@H]([C@H](C)C[C@@H]2CC[C@@H](OC(=O)C(C)(CO)CO)[C@H](OC)C2)CC(=O)[C@H](C)/C=C(\C)[C@@H](O)[C@@H](OC)C(=O)[C@H](C)C[C@H](C)/C=C/C=C/C=C/1C` [Temsirolimus] (0.01 nM), the normalised response with MDA-MB-436 worked out at 99.7%; with CAL-120, 99.6%; in the assay on MFM-223 it was 101%; in the assay on CAL-51 it was 115%; with BT-474, 103%; with HDQ-P1 it was 105%. Moreover, the normalised response in the assay on MDA-MB-231 turned out to be 101%; with CAL-148 it was 110%; in the assay on BT-549, 98.3%; in the assay with CAL-85-1, 106%; in the assay with HCC1599, 97%; in the assay on SK-BR-3, 101%. The normalised response with MCF-10A stood at 101%; in the assay on HCC1937, 97.1%; in the assay on HCC1143, 98.1%; with MDA-MB-468 it was 106%; in the assay on MDA-MB-453 it was 108%; with DU-4475, 103%. Also, in the assay with Hs578T, the normalised response was 96.7%.
For the compound `Clc1ccc(C(c2ccccc2Cl)C(Cl)Cl)cc1` (stereo not drawn) [Mitotane] (10 nM), the normalised response in the assay with MDA-MB-436 stood at 89.8%; in the assay on CAL-120 it was 101%; with MFM-223 it was 99%; in the assay with CAL-51, 104%; in the assay on BT-474 it was 93.1%; with HDQ-P1, 97%. Moreover, the normalised response came out at 99.8% in the assay with MDA-MB-231; 91.2% in the assay on CAL-148; 104% in the assay with BT-549; 106% in the assay on CAL-85-1; 132% in the assay on HCC1599; 98.1% in the assay on SK-BR-3. In addition, the normalised response came out at 96.4% in the assay on MCF-10A; 99% in the assay on HCC1937; 101% in the assay on HCC1143; 94% in the assay on MDA-MB-468; 109% in the assay on MDA-MB-453; 103% in the assay with DU-4475. This compound came in with a normalised response in the assay on Hs578T of 103%.
For the compound `CN1CC[C@H](c2c(O)cc(O)c3c(=O)cc(-c4ccccc4Cl)oc23)[C@H](O)C1` [Alvocidib] (10 nM), the normalised response with MDA-MB-436 came to 106%; with CAL-120 it was 92.4%; with MFM-223, 106%; in the assay on CAL-51, 125%; in the assay with BT-474, 98.7%; with HDQ-P1, 99.2%. In addition, the normalised response was found to be 101% in the assay with MDA-MB-231; 104% in the assay on CAL-148; 102% in the assay on BT-549; 103% in the assay with CAL-85-1; 103% with HCC1599; 106% with SK-BR-3. The normalised response in the assay with MCF-10A turned out to be 110%; in the assay with HCC1937, 101%; with HCC1143, 103%; in the assay with MDA-MB-468, 99.9%; with MDA-MB-453, 112%; in the assay on DU-4475, 104%. Further, the normalised response in the assay with Hs578T was determined as 102%.
As for `CCN1CCN(c2ccc(Nc3cc(N(C)C(=O)Nc4c(Cl)c(OC)cc(OC)c4Cl)ncn3)cc2)CC1` [NVP-BGJ398] (1 nM), the normalised response in the assay with MDA-MB-436 stood at 97.7%; with CAL-120, 97.2%; in the assay with MFM-223 it was 97.1%; with CAL-51, 118%; in the assay with BT-474, 94.9%; in the assay with HDQ-P1, 101%. In addition, the normalised response was 95.8% with MDA-MB-231; 96.1% with CAL-148; 96% with BT-549; 98.3% in the assay on CAL-85-1; 88.4% in the assay on HCC1599; 108% with SK-BR-3. Besides, the normalised response in the assay with MCF-10A stood at 108%; in the assay on HCC1937 it was 104%; in the assay with HCC1143, 98.8%; with MDA-MB-468 it was 100%; with MDA-MB-453 it was 97.7%; in the assay on DU-4475 it was 99%. Also, the normalised response with Hs578T amounted to 103%.
